# Assay results as given in patent US20050065114A1, “Therapeutical treatment with oligo-beta- (1,3) -glucans, drugs used in said treatment” (priority 2003, published 2005).
# Values joined by “and” are separate entries in the source; they are usually repeats but may differ in a detail not shown here. Identical values can stand only once.
# Experiments:
# Assay type in all cases: in vivo, Balb/c mice
# [1] = system: cells from peripheral blood (monocytes, granulocytes); test: Phagocytosis of HEMA particles by cells from peripheral blood after intraperitoneal injection; details: for % of phagocytosing granulocytes / % of phagocytosing monocytes: peripheral blood 24 hrs after i.p. injection
# Protocol: A group of Balb/c mice (Jackson laboratory, Bar Harbor, ME, USA) has been injected intraperitoneally with either PBS (Control; Sigma, St. Louis, Mo., USA), Laminaritetraose or Laminaripentaose. 24 hrs later, mice were sacrified, peripheral blood from the orbital plexus was collected into heparine (5 IU/ml) (Sigma).
# After counting, a test of phagocytosis of HEMA particles (synthetic microspheres prepared from 2-hydroxyethylmethacrylate copolymer) was performed as described in: Rembaum et al., 1976, Vetvicka et al. 1982, Bilej et al., 1989.
# 0.1 ml of heparinized fresh blood was added to 0.05 ml of diluted HEMA particles (5×10^8/ml) and incubated for 60 minutes at 37° C. with occasional gentle agitation.
# After the end of incubation, the cell suspension was smeared over microscope slides. Smears were evaluated under the optical microscope after Accustain (modified Wright stain, Sigma) staining.
# Cells with at least three engulfed particles were considered to be positive.
# peritoneal macrophages = test: Phagocytosis of HEMA particles by cells from peritoneal cavity after intraperitoneal injection; details: for % of phagocytosing macrophages: peritoneal cells 24 hrs after i.p. injection
# Protocol: A group of Balb/c mice (Jackson laboratory, Bar Harbor, Me., USA) has been injected intraperitoneally with either PBS (control), Laminaritetraose or Laminaripentaose. 24 hrs later, mice were sacrificed, peritoneal cells were collected into Hanks medium (Sigma).
# After counting the cells in hemocytometer, the peritoneal cells were diluted to lxlO7 cells in RPMI 1640 medium (Sigma) with 5% fetal calf serum (Hyclone, Logan, Utah, USA).
# 2×10^6 cells in 0.2 ml of RPMI 1640 medium supplemented with 5% fetal calf serum were mixed with the same volume of HEMA particles (5×10^8/ml).
# The suspension was incubated for 60 minutes at 37° C. with occasional agitation. Incubation was terminated by centrifugation (150 g for 5 minutes) and the pellet was resuspended.
# Macrophages with ingested particles were scored under the optical microscope in smears after Accustain (modified Wright stain, Sigma) staining.
# Cells with six or more engulfed particles were considered to be positive.
# [2] = system: peripheral blood cells (monocytes, lymphocytes, granulocytes); test: Differential count in blood; details: for % of granulocytes / % of lymphocytes / % of monocytes: peripheral blood 24 hrs after i.p. injection
# Protocol: (§1) Using the same experimental groups as described above in Example 3, two extra microscopic slides from each experimental sample were prepared. After Accustain (modified Wright stain, Sigma) staining, the slides were evaluated using the optical microscope for presence of individual types of cells, i.e. monocytes, lymphocytes and granulocytes.
# [3] = system: peritoneal cells (macrophages, lymphocytes, mast cells); test: Differential count in peritoneal cells; details: for % of lymphocytes / % of macrophages / % of mast cells: peritoneal cells 24 hrs after i.p. injection
# Protocol: as §1, with “4,” for “3,”, “macrophages,” for “monocytes,”, “mast cells.” for “granulocytes.”
# TNF-alpha = test: Cytokine level in peripheral blood: TNF-alpha in serum by OptEIA Mouse TNF-alpha ELISA; details: for TNF-alpha level (Table 6, same experiments as Table 5): 250 μg/mouse, unit not given in Table 6 (Table 5: pg/ml)
# Protocol: Balb/c mice were intraperitoneally injected with 50 μg of Laminaritetraose, Laminaripentaose, Laminarin or Lentinan (purchased from NIH, Bethesda, Md., USA) in PBS.
# After various time intervals (30, 60 and 90 minutes, respectively), after the injection of Laminaritetraose, Laminaripentaose, Laminarin, Lentinan only, the mice were killed and blood was collected in Eppendorf tubes.
# Subsequently, the serum of the collected blood was separated, collected and stored at −80° C. for no more than 1 week.
# The level of TNF-alpha in the serum samples was evaluated using a commercial kit marketed as OptEIA Mouse TNF-alpha (Mono/Mono) Set by the Company Pharmingen, San Diego, Calif., USA); the manufacturer's instructions were followed.
# In connection with the experiments carried out by Applicants, Balb/c mice were intraperitoneally injected with various doses (50, 100, and 250 μg) of Soluble laminarin and Lentinan (from NIH, Bethesda, Md., USA) in PBS.
# Control mice were treated with PBS only. […]
# Subsequently, the serum was prepared, collected and stored at −80° C. for no more than 1 week.
# The level of TNF-alpha in serum samples was evaluated using a commercial kit marketed as OptEIA Mouse TNF-alpha (Mono/Mono) Set by the Company Pharmingen, San Diego, Calif., USA); the manufacturer's instructions were followed.
# In that respect, The wells of 96-well plates were coated with 0.1 ml/well of capture antibody (provided in the above kit) diluted in coating buffer (also provided in the above kit); the expression “capture antibody” designates first antibody used for coating of wells; this antibody captures the tested cytokines from the solution; in this assay it was anti-mouse-TNF-alpha monoclonal antibody.
# The plates were sealed and incubated overnight at 4° C.
# Individual wells were emptied by aspiration and washed 3 times with over 300 el/well of wash buffer (also provided in the kit).
# Reaction was blocked with 200 el/well of assay dilutant diluent (also provided in the kit) and by incubation for 60 minutes at room temperature.
# Again, individual wells were emptied by aspiration and washed 3 times with over 300 el/well of the same wash buffer.
# Standards (also provided in the kit) and samples of serum were diluted in assay diluent (also provided in the kit) and pipetted (100 μl/well) in appropriate wells; as far as the dissolution rate is concerned standards (part of the kit) were diluted according to the instructions into following concentrations: 1000 pg/ml, 500 pg/ml, 250, 125, 62.5, 31.3, and 15.6 pg/ml.
# The plates were sealed and incubated for 60 minutes at room temperature. Individual wells were aspirated and washed 3 times with over 300 μl/well of the same wash buffer. A quantity of 100 μl/well of a working detector (antibody-avidin-HRP conjugate also provided in the kit) was added into each well.
# The plates were sealed with plastic foils and incubated for 60 minutes at room temperature. Individual wells were emptied by aspiration and washed 3 times with over 300 μl/well of same wash buffer.
# A quantity of 100 μl/well of substrate solution (also provided in the kit) was added to each well and the plates were incubated for 30 minutes in the dark at room temperature; “substrate solution” is formed by mixing a substrate reagent A containing hydrogen peroxide and Substrate reagent B containing 3,3′,5,5′-tetramethylbenzidine in organic solvent; when mixed together, the reagent reacts with peroxidase-labeled conjugates to develop a blue color.
# A quantity of 50 μl/well of stop solution provided in the kit and adapted to stop the reaction was added to each well and the optical density was determined using a STL ELISA reader (marketed by Tecan U.S., Research Triangle Park, N.C.) at 450 nm with a correction at 570 nm.
# The concentration of TNF-alpha, in pg/ml, in the blood of the mice treated as hereabove disclosed has been determined at the following moments: 30, 60 and 90 minutes after the injection of Laminaritetraose, Laminaripentaose, Lentinan and control. […]
# [4] = individual values, cells with at least three engulfed HEMA particles positive
# [5] = mean, at least three engulfed HEMA particles
compound,measurement,setting,value
"OC[C@H]1O[C@@H](O[C@@H]2[C@@H](O)[C@H](O[C@@H]3[C@@H](O)[C@H](O[C@@H]4[C@@H](O)[C@H](O)O[C@H](CO)[C@H]4O)O[C@H](CO)[C@H]3O)O[C@H](CO)[C@H]2O)[C@H](O)[C@@H](O)[C@@H]1O [Laminaritetraose, β-D-glucopyranosyl-(1→3)-β-D-glucopyranosyl-(1→3)-β-D-glucopyranosyl-(1→3)-β-D-glucopyranose]",% of phagocytosing granulocytes,[1]; [4],28.6% and 32.3% and 32.6%
same,% of phagocytosing monocytes,[1]; [4],36.8% and 30.9% and 39.8%
same,% of phagocytosing granulocytes,[1]; [5],31.2%
same,% of phagocytosing monocytes,[1]; [5],35.8%
same,Effect on phagocytosis in monocytes and granulocytes (in words),"[1]; peripheral blood, versus PBS control",strongly stimulate phagocytosis
same,% of phagocytosing macrophages,"peritoneal macrophages; individual values, cells with six or more engulfed HEMA particles positive",46.2% and 51.5% and 44.5%
same,% of phagocytosing macrophages,"peritoneal macrophages; mean, six or more engulfed HEMA particles",47.4%
same,Effect on phagocytosis of peritoneal macrophages (in words),"peritoneal macrophages; peritoneal cells, versus PBS control",strongly stimulate phagocytosis
same,% of granulocytes,[2]; individual values,33.2% and 34.4% and 30.1%
same,% of lymphocytes,[2]; individual values,57.7% and 55.6% and 61.4%
same,% of monocytes,[2]; individual values,9.1% and 10.0% and 8.5%
same,% of granulocytes,[2]; mean,32.6%
same,% of lymphocytes,[2]; mean,58.2%
same,% of monocytes,[2]; mean,9.2%
same,Effect on number of granulocytes in the peripheral blood (in words),[2]; versus PBS control,increase the number of granulocytes
same,% of lymphocytes,[3]; individual values,45.9% and 50.4% and 44.1%
same,% of macrophages,[3]; individual values,41.2% and 43.6% and 46.8%
same,% of mast cells,[3]; individual values,12.9% and 6.0% and 9.1%
same,% of lymphocytes,[3]; mean,46.8%
same,% of macrophages,[3]; mean,43.9%
same,% of mast cells,[3]; mean,9.3%
same,Effect on migration of macrophage into the peritoneal cavity (in words),[3]; versus PBS control,stimulate the migration of macrophage
same,Concentration of TNF alpha in blood of treated mice,"TNF-alpha; 50 μg/mouse i.p., 30 min",55.7 pg/mL
same,Concentration of TNF alpha in blood of treated mice,"TNF-alpha; 50 μg/mouse i.p., 60 min",103.0 pg/mL
same,Concentration of TNF alpha in blood of treated mice,"TNF-alpha; 50 μg/mouse i.p., 90 min",35.3 pg/mL
same,Concentration of TNF alpha in blood of treated mice,"TNF-alpha; 100 μg/mouse i.p., 30 min",39.0 pg/mL
same,Concentration of TNF alpha in blood of treated mice,"TNF-alpha; 100 μg/mouse i.p., 60 min",18.4 pg/mL
same,Concentration of TNF alpha in blood of treated mice,"TNF-alpha; 100 μg/mouse i.p., 90 min",13.6 pg/mL
same,Concentration of TNF alpha in blood of treated mice,"TNF-alpha; 250 μg/mouse i.p., 30 min",27.3 pg/mL
same,Concentration of TNF alpha in blood of treated mice,"TNF-alpha; 250 μg/mouse i.p., 60 min",152.3 pg/mL
same,Concentration of TNF alpha in blood of treated mice,"TNF-alpha; 250 μg/mouse i.p., 90 min",11.1 pg/mL
same,"TNF-alpha level (Table 6, same experiments as Table 5)",TNF-alpha; 24 hours,28.1 pg/mL
same,"TNF-alpha level (Table 6, same experiments as Table 5)",TNF-alpha; 48 hours,35.9 pg/mL
same,Relative activity on TNF-alpha level (in words),"TNF-alpha; comparison between substances, Table 6, 24 and 48 h",more active than yest derived glucan (Lentinan)
same,Increase of TNF-alpha secretion compared with Lentinan (in words),"TNF-alpha; low doses, indirect activation of macrophages and cytotoxic T lymphocytes",significantly higher
